Data: ChEMBL document CHEMBL1201862, “PubChem BioAssay data set” (2004)
Active and inactive are the calls of the source. For most assays here, no stated cut-off is given here; in the data, actives have a measured EC50 and inactives only a lower limit.

Legend:
[1] = cells; type: functional, cell-based
[2] = cells; type: functional, cell-based; remark: listed apart in the source
[3] = molecular target: T1, Protein RecA (Mycobacterium tuberculosis, UniProt P9WHJ3); experiment: Fluorescence Cell-Free Homogeneous Dose Retest to Identify Inhibitors of RecA-Intein Splicing Activity. [Related pubchem assays (depositor defined):AID2097, AID2223, AID489010, AID492950]; type: functional
T1 sequence (P9WHJ3 whole entry): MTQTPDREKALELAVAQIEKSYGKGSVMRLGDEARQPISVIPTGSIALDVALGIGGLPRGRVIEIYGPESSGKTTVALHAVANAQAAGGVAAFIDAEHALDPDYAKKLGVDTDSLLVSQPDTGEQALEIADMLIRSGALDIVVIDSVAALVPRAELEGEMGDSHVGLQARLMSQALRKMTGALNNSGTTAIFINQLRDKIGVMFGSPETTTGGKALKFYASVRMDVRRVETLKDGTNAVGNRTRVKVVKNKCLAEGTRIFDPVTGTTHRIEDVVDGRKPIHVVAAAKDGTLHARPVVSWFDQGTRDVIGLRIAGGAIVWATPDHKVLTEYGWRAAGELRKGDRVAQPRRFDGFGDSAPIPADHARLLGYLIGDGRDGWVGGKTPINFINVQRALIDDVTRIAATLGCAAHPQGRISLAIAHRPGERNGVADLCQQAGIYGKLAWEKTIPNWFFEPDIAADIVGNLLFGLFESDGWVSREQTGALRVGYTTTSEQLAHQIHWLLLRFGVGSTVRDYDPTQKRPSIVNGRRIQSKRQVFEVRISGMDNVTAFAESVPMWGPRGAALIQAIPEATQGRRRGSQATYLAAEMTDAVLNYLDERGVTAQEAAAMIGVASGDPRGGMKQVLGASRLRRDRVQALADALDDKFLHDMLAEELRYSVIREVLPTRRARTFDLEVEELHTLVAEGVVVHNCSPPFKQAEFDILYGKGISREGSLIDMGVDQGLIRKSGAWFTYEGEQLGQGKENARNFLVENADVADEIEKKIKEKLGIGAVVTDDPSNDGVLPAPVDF

[4] = molecular target: T2, Replicative DNA helicase DnaB (Mycobacterium tuberculosis, UniProt P9WMR3); experiment: DnaB intein splicing inhibitors, dose response, biochemical, cell-free fluorescence (AID 449749); type: functional
T2 sequence (P9WMR3 whole entry): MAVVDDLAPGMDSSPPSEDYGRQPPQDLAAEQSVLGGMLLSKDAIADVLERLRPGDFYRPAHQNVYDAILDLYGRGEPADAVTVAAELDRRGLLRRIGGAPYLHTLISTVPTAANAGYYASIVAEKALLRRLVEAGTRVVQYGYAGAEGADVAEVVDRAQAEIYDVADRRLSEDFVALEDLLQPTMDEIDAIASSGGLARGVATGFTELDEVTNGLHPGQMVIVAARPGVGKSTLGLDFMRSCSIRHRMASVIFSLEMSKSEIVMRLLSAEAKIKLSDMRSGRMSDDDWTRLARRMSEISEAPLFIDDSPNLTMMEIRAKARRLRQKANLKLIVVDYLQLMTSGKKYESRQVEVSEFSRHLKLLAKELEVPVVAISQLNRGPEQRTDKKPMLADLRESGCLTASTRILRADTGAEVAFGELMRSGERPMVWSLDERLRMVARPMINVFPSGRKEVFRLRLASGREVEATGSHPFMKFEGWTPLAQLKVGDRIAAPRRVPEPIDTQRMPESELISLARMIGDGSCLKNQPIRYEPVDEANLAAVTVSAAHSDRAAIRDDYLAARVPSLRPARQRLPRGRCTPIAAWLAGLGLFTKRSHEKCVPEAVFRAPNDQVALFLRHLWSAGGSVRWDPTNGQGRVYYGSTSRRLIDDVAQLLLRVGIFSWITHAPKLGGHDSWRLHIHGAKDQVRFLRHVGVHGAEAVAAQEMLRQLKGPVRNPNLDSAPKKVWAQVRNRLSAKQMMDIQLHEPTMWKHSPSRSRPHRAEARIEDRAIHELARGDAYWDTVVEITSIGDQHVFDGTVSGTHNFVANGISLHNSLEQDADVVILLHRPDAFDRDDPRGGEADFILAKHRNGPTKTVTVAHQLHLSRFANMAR

[5] = molecular target: Luciferin 4-monooxygenase (Photinus pyralis, UniProt P08659); experiment: inhibition of purified Photinus pyralis luciferase – biochemical, luminescence, dose response (AID 1891)
[6] = Luminescence Cell-Based Dose Confirmation HTS to Identify Inhibitors of Platelet Dense Granule Release. [Related pubchem assays: 1663 (Primary HTS), 1678 (Summary of Project)]; type: functional
[7] = viability of uninfected HEp-2 cells – cell-based, HTS, cytotoxicity control for RSV inhibitor project, dose response (AID 2410); type: functional; conditions: human respiratory syncytial virus
[8] = luciferase reporter signal suppression in cells – H4 neuroglioma cells, luminescence, dose response (AID 1990); type: functional, cell-based
[9] = alpha-synuclein stem-loop luciferase translation blockers – H4 neuroglioma cells, luminescence, confirmation (AID 1988); type: functional, cell-based
[10] = Luminescence Cell-Based Dose Response HTS to Identify Inhibitors of 5'UTR Stem-Loop Driven Prion Protein mRNA Translation in H4 Neuroglioblastoma Cells. [Related pubchem assays: 1827 (Project Summary), 1813 (Primary HTS)]; type: functional
[11] = Trypanosoma cruzi growth suppression in host cells – NIH3T3 host cells, beta-gal luminescence, confirmation (AID 2044); type: functional, cell-based;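 further: intracellular parasites grown in NIH/3T3 mouse fibroblasts as host cells; luminescent beta-galactosidase reporter signal from transgenic T. cruzi replicating inside host cells; inhibitors lower the luminescence signal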
[12] = NIH3T3 cell viability loss – ATP luminescence, mouse fibroblasts, counter-screen, dose response (AID 2010); type: functional, cell-based;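 further: cells exposed to compound for about 90 hours before reading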
[13] = reduction of Shn3 3'UTR-driven luciferase in osteoblasts – cell-based, Clone20 osteoblasts, firefly luciferase, cherry-picked, dose response (AID 624132); type: functional;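 further: firefly luciferase luminescence from reporter carrying the Shn3 3'UTR in osteoblasts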
[14] = loss of viability in HepG2 cells – cell-based, CellTiter-Glo, cherry-picked, cytotoxicity control for Shn3 inhibitor project, dose response (AID 624134); type: functional
[15] = non-specific 3'UTR reporter inhibition in Clone20-Shn3RL – cell-based, Renilla luciferase, cherry-picked, counter-screen for Shn3 inhibitor project, dose response (AID 624133); type: functional

Sequence of Luciferin 4-monooxygenase (P08659 whole entry): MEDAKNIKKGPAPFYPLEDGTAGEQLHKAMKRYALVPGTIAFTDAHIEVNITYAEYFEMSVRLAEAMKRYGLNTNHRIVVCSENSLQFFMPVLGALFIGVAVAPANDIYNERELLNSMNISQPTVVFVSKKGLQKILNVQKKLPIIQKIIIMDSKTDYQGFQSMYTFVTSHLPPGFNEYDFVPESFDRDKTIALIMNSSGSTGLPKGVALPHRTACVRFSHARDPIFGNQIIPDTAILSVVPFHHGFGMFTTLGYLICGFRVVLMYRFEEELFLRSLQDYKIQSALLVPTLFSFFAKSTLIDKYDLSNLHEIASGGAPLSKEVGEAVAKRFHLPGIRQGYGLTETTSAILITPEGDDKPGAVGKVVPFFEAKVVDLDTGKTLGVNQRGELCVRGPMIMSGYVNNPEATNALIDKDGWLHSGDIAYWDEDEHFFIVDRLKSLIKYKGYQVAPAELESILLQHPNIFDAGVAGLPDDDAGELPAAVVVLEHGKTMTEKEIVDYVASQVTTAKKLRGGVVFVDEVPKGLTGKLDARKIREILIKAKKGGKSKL

C1CCC2(CC1)C1=C(CCCC1)Nc1nnnn12
EC50 [1]: > 350 µM (not active)
EC50 [2]: > 350 µM (not active)

COc1cc(C2(c3ccc(O)c(OC)c3)C(=O)Nc3c(C)cc(Br)cc32)ccc1O
EC50 [3]: 14.4 µM (active)
AC50 [4]: 5.77 µM (active)

CCOC(=O)N1CCC(/N=c2/c(-c3ccccc3)c(O)c2=O)CC1
EC50 [1]: > 350 µM (not active)
EC50 [2]: > 350 µM (not active)

O=C(CN(Cc1ccccc1Cl)C(=O)c1ccc(CN2CCOCC2)o1)NCc1ccccc1
EC50 [5]: > 112 µM (not active)
EC50 [6]: 62.6 µM (active)

Cc1ccc2c(CSc3nc4ccccc4c(=O)n3CCCO)cc(=O)oc2c1C
CC50 [7]: 30.5 µM (active)

O=C(N1CCN(Cc2ccccc2)CC1)C12CC3CC(CC(C3)C1)C2
EC50 [5]: > 112 µM (not active)
EC50 [6]: > 112 µM (not active)

CCc1cccc(NC2c3ccccc3C(=O)N2c2cccnc2)c1 (centres undefined)
EC50 [5]: > 112 µM (not active)
EC50 [6]: > 112 µM (not active)

CCOC(=O)C1=C(CN2CCN(C(=O)c3ccco3)CC2)NC(=O)NC1c1ccccc1 (centres undefined)
EC50 [8]: 42.2 µM (active)
EC50 [9]: > 120 µM (not active)
EC50 [10]: > 120 µM (not active)

N=C(N)SCc1cn(-c2ccccc2)nc1-c1ccc(Br)cc1
EC50 [11]: 1.03 µM (active)
EC50 [3]: 11 µM (active)
EC50 [12]: 11.2 µM (active)
AC50 [4]: 8.68 µM (active)

COc1ccc(/C=C2/C(=O)N(c3ccccc3)N=C2C)cc1
EC50 [3]: 1.7 µM (active)
AC50 [4]: 4.44 µM (active)

CC1CCCC(C)N1C(=O)COC(=O)CNC(=O)c1sc2ccccc2c1Cl (centres undefined)
EC50 [5]: > 112 µM (not active)
EC50 [6]: > 112 µM (not active)

Cc1ccc(CNC(=O)C2CCN(S(=O)(=O)c3ccc4c(c3)CC(C)N4C(=O)C3CCC3)CC2)o1 (centres undefined)
EC50 [8]: 13 µM (active)
EC50 [9]: 12.3 µM (active)
EC50 [10]: > 120 µM (not active)

CCOC(=O)CNC(=O)CSc1nnc(Cn2cnc3ccccc32)n1C
EC50 [1]: > 350 µM (not active)
EC50 [2]: > 350 µM (not active)

NC(=O)CC(NC(=O)c1ccc(Br)cc1)c1ccc(N2CCC(Br)CC2)c([N+](=O)[O-])c1 (centres undefined)
AC50 [13]: 4.19 µM (active)
AC50 [14]: 62.8 µM (active)
AC50 [15]: 17.5 µM (active)

Cc1c(N=C2N=C(NC(=O)c3cccs3)c3ccccc32)c(=O)n(-c2ccccc2)n1C
CC50 [7]: 18.7 µM (active)

Cc1ccc2c(c1)-c1c(ssc1=S)C(C)(C)N2C(=O)CSc1nncn1C
EC50 [8]: 46.1 µM (active)
EC50 [9]: > 120 µM (not active)
EC50 [10]: > 120 µM (not active)
EC50 [3]: 9.47 µM (active)
AC50 [4]: 6.63 µM (active)

O=C1CSCN1c1ccc(Cl)cc1
EC50 [1]: > 350 µM (not active)
EC50 [2]: > 350 µM (not active)

Nc1cccc(-c2nc3ccc(N)cc3s2)c1
EC50 [5]: 2.3 µM (active)
EC50 [6]: < 0.701 µM (active)

CCOC(=O)CSc1nc(=O)c(NCC(=O)OC)n[nH]1
EC50 [3]: 5.87 µM (active)
AC50 [4]: 12 µM (active)

O=C(c1ccco1)c1cn(CC(=O)N2CCCc3ccccc32)c2ccccc12
EC50 [5]: > 112 µM (not active)
EC50 [6]: > 112 µM (not active)

O=C(N/N=C/c1ccccn1)c1ccc(Br)cc1
EC50 [1]: > 350 µM (not active)
EC50 [2]: 15.2 µM (active)

Cc1ccc(CN=C(N)Nc2nc(C)cc(C)n2)cc1
EC50 [8]: > 120 µM (not active)
EC50 [9]: 7.78 µM (active)
EC50 [10]: 9.36 µM (active)

Cc1cnc(C)c(N2CCN(Cc3nc(-c4ccccc4)no3)CC2)n1
EC50 [5]: > 112 µM (not active)
EC50 [6]: > 112 µM (not active)

Cc1ccc(C#CC[N+](C)(C)CC#Cc2ccccc2)cc1
EC50 [11]: 1.92 µM (active)
EC50 [8]: > 120 µM (not active)
EC50 [9]: > 120 µM (not active)
EC50 [10]: > 120 µM (not active)
EC50 [12]: > 60 µM (not active)

Cc1nn(-c2ccccc2)c2c1C(c1ccncc1)C(C#N)=C(N)O2 (centres undefined)
EC50 [3]: 3.05 µM (active)
AC50 [4]: 12.7 µM (active)

CN(C(=O)c1cc(S(=O)(=O)N2CCc3ccccc32)cn1C)C1CCCCC1
EC50 [5]: > 112 µM (not active)
EC50 [6]: > 112 µM (not active)

O=C(O)C1C2CCC(C2)C1C(=O)Nc1ccccc1 (centres undefined)
EC50 [5]: > 112 µM (not active)
EC50 [6]: > 112 µM (not active)

CCCCCC(=O)O[C@]1(C(C)=O)CC[C@H]2[C@@H]3CCC4=CC(=O)CC[C@]4(C)[C@H]3CC[C@@]21C [HYDROXYPROGESTERONE CAPROATE]
EC50 [3]: 4.88 µM (active)
AC50 [4]: 11.9 µM (active)

CCOC(=O)COc1cccc2c(=O)n(CC(=O)N3CCN(C(=O)OCC)CC3)ccc12
EC50 [5]: > 112 µM (not active)
EC50 [6]: > 112 µM (not active)

CC(=O)c1ccc(NC2CC(O)C(O)CO2)cc1 (centres undefined)
EC50 [8]: > 120 µM (not active)
EC50 [9]: 16.1 µM (active)
EC50 [10]: > 120 µM (not active)

C/C(CC(=O)Nc1ccc(F)cc1F)=N\NC(=O)C(=O)N1CCCCC1
EC50 [3]: 1.8 µM (active)
AC50 [4]: 5 µM (active)

Cc1cc(C)n(-c2nc3ccccc3c(=O)n2OCC(=O)OCc2ccccc2)n1
EC50 [8]: 19.3 µM (active)
EC50 [9]: > 120 µM (not active)
EC50 [10]: 17.6 µM (active)

C=CCN(c1ccccc1)S(=O)(=O)c1cccc(C(=O)Nc2nc3ccccc3[nH]2)c1
AC50 [13]: 10.1 µM (active)
AC50 [14]: 49.7 µM (active)
AC50 [15]: 27.8 µM (active)
